Structures can show the parent of a compound that is named as a salt.
How the values were obtained:
[1] = Visually determined saturated solubility in various solvents; format: physicochemical
Description: The solubility experiments were performed by weighing 0.5±0.05 g of each excipient into glass vials (28 mL). The API (5.0±0.5 mg) was weighed by difference on a plastic weigh boat and transferred into the corresponding vial. […] Once saturation was achieved the mg/g API to solvent ratio was recorded.

[2] = http://www.drugbank.ca/; cited from earlier work
[3] = literature sources; sildenafil base value marked experimentally determined; cited from earlier work
[4] = after 15 minutes exposure to an infrared bulb; cited from earlier work

Compound	Visually determined saturated solubility ([1]; Solvent Arlasolve DMI) [mg/g]	Visually determined saturated solubility ([1]; Solvent Diethyl Ether) [mg/g]	Visually determined saturated solubility ([1]; Solvent EtOH) [mg/g]	Visually determined saturated solubility ([1]; Solvent IPA) [mg/g]	Visually determined saturated solubility ([1]; Solvent Isoamyl Alcohol) [mg/g]	Visually determined saturated solubility ([1]; Solvent MeOH) [mg/g]	Visually determined saturated solubility ([1]; Solvent PEG-400) [mg/g]	Visually determined saturated solubility ([1]; Solvent PG) [mg/g]	Visually determined saturated solubility ([1]; Solvent Phenoxyethanol) [mg/g]	Visually determined saturated solubility ([1]; Solvent Transcutol P) [mg/g]	Log P [2]	mg/ml figure listed among physicochemical properties (solubility) [3] [mg/mL]	Fold increase in permeation [4]
Nc1nc2c(ncn2COCCO)c(=O)[nH]1 [Acyclovir]	<0.29	<0.54	<0.35	<0.34	<0.31	0.29 to 0.62	0.799 to 1.07	1.66 to 2.39	0.54 to 1.08	<0.30	−1.56		
O=C(O)Cc1ccccc1Nc1c(Cl)cccc1Cl [Diclofenac diethyl amine]												4.1	
O=C(O)Cc1ccccc1Nc1c(Cl)cccc1Cl [Diclofenac free acid]	57.90 to 110.45	21.28 to 49.89	31.60 to 62.79	29.97 to 58.09	34.25 to 53.55	34.43 to 68.06	28.83 to 51.73	10.15 to 20.50	34.32 to 81.12	108.73 to 162.17			
CCCc1nn(C)c2c(=O)[nH]c(-c3cc(S(=O)(=O)N4CCN(C)CC4)ccc3OCC)nc12 [Sildenafil base]												< 0.83	
CCCc1nn(C)c2c(=O)[nH]c(-c3cc(S(=O)(=O)N4CCN(C)CC4)ccc3OCC)nc12 [Sildenafil citrate]	<0.88	<0.90	0.54 to 1.06	<1.27	<0.45	6.60 to 10.02	3.85 to 6.32	1.90 to 2.86	6.56 to 9.88	2.14 to 2.85			
O=[N+]([O-])OCC(CO[N+](=O)[O-])O[N+](=O)[O-] [nitroglycerin]													2-3 fold

— patent US20150037394A1, “DRUG DELIVERY FORMULATIONS” (King's College London, priority 2011, published 2015)
